# Earlier results, collected in patent publication US20070059365A1, “Novel formulation of ropinirole” (priority 2003, published 2007).
# Settings: in vivo
smiles,measurement,value
"CCCN(CCC)CCc1cccc2c1CC(=O)N2.Cl [ropinirole, 4-(2-di-n-propylaminoethyl)-2(3H)-indolone hydrochloride]",half-life of ropinirole,5 to 6 h
